In patent publication US11234437B2 (priority 2017, dated 2022) one finds inhibition of growth, pest or weed control and melting point data, which are given here for 27 compounds.

In data set [1] the test system is Magnaporthe grisea (Pyricularia oryzae). Briefly: microbe, parasite or virus in culture. The note with it: read-out: control of Magnaporthe grisea. Format: cell-based.
For data set [2], the system named is Gaeumannomyces graminis. The data set is described as follows: Gaeumannomyces graminis / liquid culture (take-all of cereals). Format: cell-based. The note with it: compared to untreated control. How it is done:
Mycelial fragments of the fungus from cryogenic storage were directly mixed into nutrient broth (PDB potato dextrose broth). After placing a (DMSO) solution of test compound into a microtiter plate (96-well format), the nutrient broth containing the fungal spores is added. The test plates are incubated at 24° C. and the inhibition of growth is determined photometrically 4-5 days after application.

In data set [3] the test system is Monographella nivalis (Microdochium nivale). The data set is described as follows: Monographella nivalis (Microdochium nivale) / liquid culture (foot rot cereals). It counts as cell-based. As to conditions: compared to untreated control. How it is done: Monographella nivalis (Microdochium nivale)/Liquid Culture (Foot Rot Cereals)
Conidia of the fungus from cryogenic storage are directly mixed into nutrient broth (PDB potato dextrose broth). After placing a (DMSO) solution of test compound into a microtiter plate (96-well format), the nutrient broth containing the fungal spores is added. The test plates are incubated at 24° C. and the inhibition of growth is determined photometrically 4-5 days after application.

The test system of data set [4] is Gibberella zeae (Fusarium graminearum). The data set is described as follows: whole plant or invertebrate. Format: in vivo. As to conditions: in Triticum aestivum, read-out: control of Gibberella zeae.

`CC(C)C[C@@](C)(Cc1ccccc1)NC(=O)c1cnc2c(F)cccc2c1` [Compound F-1, N-[(1S)-1-benzyl-1,3-dimethyl-butyl]-8-fluoro-quinoline-3-carboxamide]: the inhibition of growth at 20 ppm in data set [1], in data set [2] and in data set [3] was at least 80% throughout.

Take `CC(C)C[C@](C)(Cc1ccccc1)NC(=O)c1cnc2c(F)cccc2c1` [Compound F-2, N-[(1R)-1-benzyl-1,3-dimethyl-butyl]-8-fluoro-quinoline-3-carboxamide]: the inhibition of growth at 20 ppm in data set [1], in data set [2] and in data set [3] was at least 80% each time.

In the case of `CC(C)C[C@@](C)(Cc1ccccc1)NC(=O)c1cnc2ccccc2c1` [Compound F-3, N-[(1S)-1-benzyl-1,3-dimethyl-butyl]quinoline-3-carboxamide], the inhibition of growth at 20 ppm in data set [1], in data set [2] and in data set [3] was at least 80% each time.

Regarding `CC(C)C[C@](C)(Cc1ccccc1)NC(=O)c1cnc2ccccc2c1` [Compound F-4, N-[(1R)-1-benzyl-1,3-dimethyl-butyl]quinoline-3-carboxamide], the inhibition of growth at 20 ppm in data set [1] and in data set [2] was at least 80% throughout.

With `C=C(C)C[C@](C)(Cc1ccccc1)NC(=O)c1cnc2c(F)cccc2c1` [Compound F-5, N-[(1R)-1-benzyl-1,3-dimethyl-but-3-enyl]-8-fluoro-quinoline-3-carboxamide], the inhibition of growth at 20 ppm in data set [1] and in data set [3] was at least 80% in each case. For the same compound, the pest or weed control at 200 ppm in data set [4] was at least 80%.

In the case of `C=C(C)C[C@@](C)(Cc1ccccc1)NC(=O)c1cnc2c(F)cccc2c1` [Compound F-6, N-[(1S)-1-benzyl-1,3-dimethyl-but-3-enyl]-8-fluoro-quinoline-3-carboxamide], the pest or weed control at 200 ppm in data set [4] was at least 80%. The inhibition of growth at 20 ppm in data set [2] and in data set [3] was at least 80% each time.

Take `C[C@](Cc1ccccc1)(CC(F)(F)F)NC(=O)c1cnc2c(F)cccc2c1` [Compound F-7, N-[(1S)-1-benzyl-3,3,3-trifluoro-1-methyl-propyl]-8-fluoro-quinoline-3-carboxamide]: the inhibition of growth at 20 ppm in data set [1] is at least 80%. Also, in data set [4], the pest or weed control at 200 ppm is at least 80%.

As for `C[C@@](Cc1ccccc1)(CC(F)(F)F)NC(=O)c1cnc2c(F)cccc2c1` [Compound F-8, N-[(1R)-1-benzyl-3,3,3-trifluoro-1-methyl-propyl]-8-fluoro-quinoline-3-carboxamide], the inhibition of growth at 20 ppm in data set [1] is at least 80%.

For the compound `CC(C)(C)C[C@@](C)(Cc1ccccc1)NC(=O)c1cnc2c(F)cccc2c1` [Compound F-9, N-[(1S)-1-benzyl-1,3,3-trimethyl-butyl]-8-fluoro-quinoline-3-carboxamide], in data set [4], the pest or weed control at 200 ppm is at least 80%. Moreover, the inhibition of growth at 20 ppm in data set [2] and in data set [3] was at least 80% in each case.

Turning to `CC(C)(C)C[C@](C)(Cc1ccccc1)NC(=O)c1cnc2c(F)cccc2c1` [Compound F-10, N-[(1R)-1-benzyl-1,3,3-trimethyl-butyl]-8-fluoro-quinoline-3-carboxamide], the pest or weed control at 200 ppm in data set [4] was at least 80%. The inhibition of growth at 20 ppm in data set [2] was at least 80%.

Turning to `C=C(C)C[C@](C)(Cc1ccccc1)NC(=O)c1cnc2c(F)c(F)ccc2c1` [Compound F-11, N-[(1R)-1-benzyl-1,3-dimethyl-but-3-enyl]-7,8-difluoro-quinoline-3-carboxamide], the inhibition of growth at 20 ppm in data set [1] was at least 80%. Moreover, the pest or weed control at 200 ppm in data set [4] is at least 80%.

Regarding `C=C(C)C[C@@](C)(Cc1ccccc1)NC(=O)c1cnc2c(F)c(F)ccc2c1` [Compound F-12, N-[(1S)-1-benzyl-1,3-dimethyl-but-3-enyl]-7,8-difluoro-quinoline-3-carboxamide], the inhibition of growth at 20 ppm in data set [1] and in data set [3] was at least 80% throughout.

For `CC(C)C[C@](C)(Cc1ccccc1)NC(=O)c1cnc2c(F)c(F)ccc2c1` [Compound F-14, N-[(1R)-1-benzyl-1,3-dimethyl-butyl]-7,8-difluoro-quinoline-3-carboxamide], the inhibition of growth at 20 ppm in data set [1] was at least 80%.

Consider `CC(C)(F)C[C@@](C)(Cc1ccccc1)NC(=O)c1cnc2c(F)cccc2c1` [Compound F-15, N-[(1R)-1-benzyl-3-fluoro-1,3-dimethyl-butyl]-8-fluoro-quinoline-3-carboxamide], for which the inhibition of growth at 20 ppm in data set [1] and in data set [3] was at least 80% each time. In addition, the pest or weed control at 200 ppm in data set [4] was at least 80%.

`CC(C)(F)C[C@](C)(Cc1ccccc1)NC(=O)c1cnc2c(F)cccc2c1` [Compound F-16, N-[(1S)-1-benzyl-3-fluoro-1,3-dimethyl-butyl]-8-fluoro-quinoline-3-carboxamide]: the inhibition of growth at 20 ppm in data set [1] and in data set [3] was at least 80% throughout. In addition, the pest or weed control at 200 ppm in data set [4] is at least 80%.

In the case of `Cc1cccc2cc(C(=O)N[C@](C)(Cc3ccccc3)CC(F)(F)F)cnc12` [Compound F-18, N-[(1R)-1-benzyl-3,3,3-trifluoro-1-methyl-propyl]-8-methyl-quinoline-3-carboxamide], the inhibition of growth at 20 ppm in data set [1] was at least 80%.

`C[C@@](Cc1ccccc1)(CC(F)(F)F)NC(=O)c1cnc2c(Cl)cccc2c1` [Compound F-20, N-[(1R)-1-benzyl-3,3,3-trifluoro-1-methyl-propyl]-8-chloro-quinoline-3-carboxamide]: in data set [1], the inhibition of growth at 20 ppm was at least 80%.

`C[C@@](Cc1ccccc1)(CC(F)(F)F)NC(=O)c1cnc2c(F)c(F)ccc2c1` [Compound F-22, N-[(1R)-1-benzyl-3,3,3-trifluoro-1-methyl-propyl]-7,8-difluoro-quinoline-3-carboxamide]: in data set [1], the inhibition of growth at 20 ppm is at least 80%. Besides, the pest or weed control at 200 ppm in data set [4] is at least 80%.

Take `CC(F)(F)C[C@@](C)(Cc1ccccc1)NC(=O)c1cnc2c(F)cccc2c1` [Compound F-31, N-[(1R)-1-benzyl-3,3-difluoro-1-methyl-butyl]-8-fluoro-quinoline-3-carboxamide]: the inhibition of growth at 20 ppm in data set [1] and in data set [3] was at least 80% throughout. In addition, the pest or weed control at 200 ppm in data set [4] was at least 80%.

As to `CC1(CC(C)(Cc2ccccc2)NC(=O)c2cnc3c(F)cccc3c2)CC1` (stereo not drawn) [X.003, N-[1-benzyl-1-methyl-2-(1-methylcyclopropyl)ethyl]-8-fluoro-quinoline-3-carboxamide], the melting point – broadly, the temperature, or range, at which the solid turns liquid – lay in the range of 126 to 129 °C. The inhibition of growth at 20 ppm in data set [1] was at least 80%. For the same compound, in data set [4], the pest or weed control at 200 ppm is at least 80%. The compound further displayed an inhibition of growth at 20 ppm in data set [2] of at least 80%.

For `Cc1cccc2cc(C(=O)NC(C)(Cc3ccccc3)CC(F)(F)F)cnc12` (stereo not drawn) [X.004, N-(1-benzyl-3,3,3-trifluoro-1-methyl-propyl)-8-methyl-quinoline-3-carboxamide], the melting point fell in the range of 120 to 123 °C. For the same compound, in data set [1], the inhibition of growth at 20 ppm was at least 80%. In addition, the pest or weed control at 200 ppm in data set [4] was at least 80%. The inhibition of growth at 20 ppm in data set [3] is at least 80%.

Compound `CC(Cc1ccccc1)(CC(F)(F)F)NC(=O)c1cnc2c(Cl)cccc2c1` (stereo not drawn) [X.005, N-(1-benzyl-3,3,3-trifluoro-1-methyl-propyl)-8-chloro-quinoline-3-carboxamide] registered a melting point of 141 to 144 °C. Moreover, the inhibition of growth at 20 ppm in data set [1] was at least 80%. Further, in data set [4], the pest or weed control at 200 ppm is at least 80%. In addition, the inhibition of growth at 20 ppm in data set [3] is at least 80%.

Turning to `C=C(C)CC(C)(Cc1ccccc1)NC(=O)c1cnc2c(F)cccc2c1` (stereo not drawn) [X.009, N-(1-benzyl-1,3-dimethyl-but-3-enyl)-8-fluoro-quinoline-3-carboxamide], the inhibition of growth at 20 ppm in data set [1], in data set [2] and in data set [3] was at least 80% each time. Also, the pest or weed control at 200 ppm in data set [4] was at least 80%.

`C=C(C)CC(C)(Cc1ccccc1)NC(=O)c1cnc2c(F)c(F)ccc2c1` (stereo not drawn) [X.010, N-(1-benzyl-1,3-dimethyl-but-3-enyl)-7,8-difluoro-quinoline-3-carboxamide] came in with a melting point of 94 to 96 °C. The inhibition of growth at 20 ppm in data set [1] was at least 80%. Also, the pest or weed control at 200 ppm in data set [4] is at least 80%. In data set [3], the inhibition of growth at 20 ppm was at least 80%.

Regarding `CC(F)(F)CC(C)(Cc1ccccc1)NC(=O)c1cnc2c(F)cccc2c1` (stereo not drawn) [X.014, N-(1-benzyl-3,3-difluoro-1-methyl-butyl)-8-fluoro-quinoline-3-carboxamide], the inhibition of growth at 20 ppm in data set [1] was at least 80%. For the same compound, in data set [4], the pest or weed control at 200 ppm was at least 80%.

As for `CC(C)(F)CC(C)(Cc1ccccc1)NC(=O)c1cnc2c(F)cccc2c1` (stereo not drawn) [X.015, N-(1-benzyl-3-fluoro-1,3-dimethyl-butyl)-8-fluoro-quinoline-3-carboxamide], the inhibition of growth at 20 ppm in data set [1] and in data set [3] was at least 80% each time. The pest or weed control at 200 ppm in data set [4] is at least 80%.

`CC(C)(C)CC(C)(Cc1ccccc1)NC(=O)c1cnc2c(F)cccc2c1` (stereo not drawn) [X.016, N-(1-benzyl-1,3,3-trimethyl-butyl)-8-fluoro-quinoline-3-carboxamide] gave a melting point of 48 to 50 °C. In addition, the inhibition of growth at 20 ppm in data set [1] is at least 80%. In addition, the pest or weed control at 200 ppm in data set [4] is at least 80%. The compound also yielded an inhibition of growth at 20 ppm in data set [3] of at least 80%.
